Experimental data reported in patent publication US12421254B2, “KRAS modulators and uses thereof” (Quanta Therapeutics, Inc., priority 2023, dated 2025).

Key:
[1] = molecular target: GST-tagged KRAS-G12D (2-169) (Homo sapiens, UniProt P01116, G12D); assay: Nucleotide exchange assay (NEA), SOS-mediated, HTRF, KRAS G12D; format: biochemical; settings: Table 4; IC50 extracted at 30 min; 20 nM SOScat; read-out: NEA G12D IC50
How it was run: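 SOS1cat-driven loading of fluorescent GTP-DY-647P1 (150 nM) onto GST-KRAS-G12D (2-169, 0.25 nM) read by time-resolved FRET; SOScat 20 nM, compound preincubated with KRAS 1 h at RT. Signal blanked to no-SOS reactions, normalized to DMSO; IC50 fitted from the 30-min read.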

[2] = tested on: phospho-ERK in GP2D (KRAS-G12D) cells; assay: pERK In Cell Western (ICW) assay (Method B), GP2D; format: cell-based
How it was run: (§1)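 Read-out is In-Cell Western phospho-ERK signal divided by DRAQ5 per well, as percent of blank control, fitted with a 4-parameter variable-slope model for IC50. Compounds were dosed as 9-point half-log series for 3 h at 37°C on AGS, GP2D (G12D) or SW620 (G12V) cells plated the day before.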

[3] = molecular target: GST-tagged KRAS-G12V (2-169) (Homo sapiens, UniProt P01116, G12V); assay: Nucleotide exchange assay (NEA), SOS-mediated, HTRF, KRAS G12V; format: biochemical; settings: Table 4; IC50 extracted at 90 min; 80 nM SOS
How it was run: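 Exchange onto fluorescent GTP-DY-647P1 (150 nM final) catalysed by 80 nM SOS1cat was followed by Tb-anti-GST HTRF at RT for up to 90 min, after 1 h compound pre-incubation with 0.25 nM GST-tagged KRAS-G12V (2-169), pH 7.3. DMSO = 0%, no-SOS blank = 100%; 4-parameter IC50 taken at 90 min.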

[4] = tested on: phospho-ERK in SW620 (KRAS-G12V) cells; assay: pERK In Cell Western (ICW) assay (Method B), SW620; format: cell-based; settings: Homo sapiens, SW-620, 3 h, Table 4
How it was run: as §1

Chain of GST-tagged KRAS-G12D (2-169) (P01116 2-169 isoform P01116-2 G12D): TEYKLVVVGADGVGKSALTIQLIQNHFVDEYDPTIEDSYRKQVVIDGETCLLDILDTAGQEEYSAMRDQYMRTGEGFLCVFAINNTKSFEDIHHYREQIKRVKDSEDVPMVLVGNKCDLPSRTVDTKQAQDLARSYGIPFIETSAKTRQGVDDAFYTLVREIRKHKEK
Chain of GST-tagged KRAS-G12V (2-169) (P01116 2-169 isoform P01116-2 G12V): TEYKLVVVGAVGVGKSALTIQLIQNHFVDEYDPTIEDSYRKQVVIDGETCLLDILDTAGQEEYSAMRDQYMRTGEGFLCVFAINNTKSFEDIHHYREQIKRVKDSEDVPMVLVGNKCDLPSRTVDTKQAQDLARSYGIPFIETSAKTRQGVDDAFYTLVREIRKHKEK

| Compound | IC50 [1] | IC50 ([2]; GP2d, 3 h, Table 4) | IC50 [3] | IC50 [4] | IC50 ([2]; Table 4, 3 hours) |
| --- | --- | --- | --- | --- | --- |
| CCN(c1nc(OCC23CCCN2CCN(C)C3)nc(N2CC3(C2)SCc2sc(N)c(C#N)c23)n1)[C@H](C)c1cccnc1N (stereo partly drawn) [Compound 223, 2-amino-1′-[4-[[(1R)-1-(2-amino-3-pyridyl)ethyl]-ethyl-amino]-6-[(2-methyl-1,3,4,6,7,8-hexahydropyrrolo[1,2-a]pyrazin-8a-yl)methoxy]-1,3,5-triazin-2-yl]spiro[6H-thieno[3,4-b]thiophene-4,3′-azetidine]-3-carbonitrile] | < 10 nM | 10 to 100 nM | < 10 nM | 10 to 100 nM | – |
| N#Cc1c(N)sc2c1C1(CC2)CN(c2nc(OCC3(CN4CCOCC4)CC3)nc(N3CCCC(C#N)C3)n2)C1 (stereo not shown) [Compound 56, 2-amino-1′-[4-(3-cyano-1-piperidyl)-6-[[1-(morpholinomethyl)cyclopropyl]methoxy]-1,3,5-triazin-2-yl]spiro[5,6-dihydrocyclopenta[b]thiophene-4,3′-azetidine]-3-carbonitrile] | 100 to 1000 nM | 100 to 1000 nM | 10 to 100 nM | 1000 to 20000 nM | – |
| N#CCC1(O)CCCN(c2nc(OC[C@@]34CCCN3C[C@H](F)C4)nc(N3CC4(CCc5sc(N)c(C#N)c54)C3)n2)C1 (stereo partly drawn) [Compound 79, 2-amino-1′-[4-[3-(cyanomethyl)-3-hydroxy-1-piperidyl]-6-[[(2R,8S)-2-fluoro-1,2,3,5,6,7-hexahydropyrrolizin-8-yl]methoxy]-1,3,5-triazin-2-yl]spiro[5,6-dihydrocyclopenta[b]thiophene-4,3′-azetidine]-3-carbonitrile; 2,2,2-trifluoroacetic acid] | 10 to 100 nM | 100 to 1000 nM | < 10 nM | 1000 to 20000 nM | – |
| CCN(c1nc(OC[C@@]23CCCN2C[C@H](F)C3)nc(N2CC3(C2)SCc2sc(N)c(C#N)c23)n1)C(C)c1nccnc1N (single isomer, unassigned) [Compound 168A, 2-amino-1′-[4-[[(1*)-1-(3-aminopyrazin-2-yl)ethyl]-ethyl-amino]-6-[[(2R,8S)-2-fluoro-1,2,3,5,6,7-hexahydropyrrolizin-8-yl]methoxy]-1,3,5-triazin-2-yl]spiro[6H-thieno[3,4-b]thiophene-4,3′-azetidine]-3-carbonitrile] | < 10 nM | – | < 10 nM | < 10 nM | < 10 nM |
| CC(O)CN(Cc1cccnc1N)c1nc(OC[C@@]23CCCN2C[C@H](F)C3)nc(N2CC3(CCc4sc(N)c(C#N)c43)C2)n1 (stereo partly drawn) [Compound 141, 2-amino-1′-[4-[(2-amino-3-pyridyl)methyl-(2-hydroxypropyl)amino]-6-[[(2R,8S)-2-fluoro-1,2,3,5,6,7-hexahydropyrrolizin-8-yl]methoxy]-1,3,5-triazin-2-yl]spiro[5,6-dihydrocyclopenta[b]thiophene-4,3′-azetidine]-3-carbonitrile] | 10 to 100 nM | 1000 to 20000 nM | < 10 nM | 100 to 1000 nM | – |
| N#Cc1c(N)sc2c1C1(CC2)CN(c2nc(OC[C@@]34CCCN3C[C@H](F)C4)nc(N3CCCC(O)(CO)C3)n2)C1 (stereo partly drawn) [Compound 85, 2-amino-1′-[4-[3-hydroxy-3-(hydroxymethyl)-1-piperidyl]-6-[[(2R,8S)-2-fluoro-1,2,3,5,6,7-hexahydropyrrolizin-8-yl]methoxy]-1,3,5-triazin-2-yl]spiro[5,6-dihydrocyclopenta[b]thiophene-4,3′-azetidine]-3-carbonitrile] | 100 to 1000 nM | 1000 to 20000 nM | 10 to 100 nM | 1000 to 20000 nM | – |
| C[C@@]1(O)CCCN(c2nc(OC[C@@]34CCCN3C[C@H](F)C4)nc(N3CC4(C3)SCc3sc(N)c(C#N)c34)n2)C1 [Compound 49, 2-amino-1′-[4-[[(2R,8S)-2-fluoro-1,2,3,5,6,7-hexahydropyrrolizin-8-yl]methoxy]-6-[(3R)-3-hydroxy-3-methyl-1-piperidyl]-1,3,5-triazin-2-yl]spiro[6H-thieno[2,3-c]thiophene-4,3′-azetidine]-3-carbonitrile] | < 10 nM | < 10 nM | < 10 nM | 100 to 1000 nM | – |
